Molecules are shown by their SMILES.

Results on four compounds are retold here after US10828305B2 (SHANGHAI PHARMACEUTICALS HOLDING CO., LTD., priority 2016, dated 2020).

The test system of experiment [1] is human breast cancer BT-474 xenograft. The settings on record: 50MPK (BID), oral, 20 days.
Experiment [2] relates to human gastric cancer NCI-N87 xenograft. Briefly: HER2 overexpressing human gastric cancer NCI-N87 xenograft model in nude mice. Type of experiment: in vivo, Balb/c nude mice. The note with it: 50MPK (BID), oral, 22 days.
In another experiment the target is EGFR kinase (Homo sapiens, UniProt P00533). Description: Enzymatic experiment on EGFR (HTRF kinEASE-TK). Type of experiment: biochemical. The settings on record: ATP 1.65 μM; read-out: Kinase IC50 (nM) in vitro EGFR. The essentials: (§1)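 HTRF kinEASE-TK with biotinylated TK substrate in HEPES pH 7.0 buffer containing MnCl2, MgCl2 and DTT; ErbB2 at 0.06 ng/μl with 4 μM ATP, EGFR at 0.06 units/μl with 1.65 μM ATP, 30 min at room temperature after 5 min enzyme/substrate–compound preincubation. Ten-point 3-fold dilutions; Eu antibody/SA-XL665 detection, 665/620 ratio.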

Another experiment deals with BT-474. Briefly: Proliferation inhibition assay in vitro, BT-474 (CellTiter-Glo). Type of experiment: cell-based. The note with it: Homo sapiens, 72 hours, read-out: IC50(nM) cell BT-474. The method, boiled down: (§2)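 Cells were seeded at 8.8×10^4 cells/mL for BT-474 or 6.6×10^4 cells/mL for N87 and grown overnight. Compound was added at 9 concentrations in duplicate for 72 h at 37 °C, 5% CO2. Viability was measured by CellTiter-Glo.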

In a further experiment the test system is N87. Description: Proliferation inhibition assay in vitro, N87 (CellTiter-Glo). Type of experiment: cell-based. The note with it: Homo sapiens; 72 hours; read-out: IC50(nM) cell N87. The method, boiled down:
as §2

Another experiment concerns the target ErbB2 kinase (Homo sapiens, UniProt P04626). Briefly: Enzymatic experiment on ErbB2 (HTRF kinEASE-TK). Type of experiment: biochemical. The settings on record: ATP 4 μM; read-out: Kinase IC50 (nM) in vitro ErbB2. The method, boiled down: as §1

Chain of ErbB2 kinase (P04626 23-1255): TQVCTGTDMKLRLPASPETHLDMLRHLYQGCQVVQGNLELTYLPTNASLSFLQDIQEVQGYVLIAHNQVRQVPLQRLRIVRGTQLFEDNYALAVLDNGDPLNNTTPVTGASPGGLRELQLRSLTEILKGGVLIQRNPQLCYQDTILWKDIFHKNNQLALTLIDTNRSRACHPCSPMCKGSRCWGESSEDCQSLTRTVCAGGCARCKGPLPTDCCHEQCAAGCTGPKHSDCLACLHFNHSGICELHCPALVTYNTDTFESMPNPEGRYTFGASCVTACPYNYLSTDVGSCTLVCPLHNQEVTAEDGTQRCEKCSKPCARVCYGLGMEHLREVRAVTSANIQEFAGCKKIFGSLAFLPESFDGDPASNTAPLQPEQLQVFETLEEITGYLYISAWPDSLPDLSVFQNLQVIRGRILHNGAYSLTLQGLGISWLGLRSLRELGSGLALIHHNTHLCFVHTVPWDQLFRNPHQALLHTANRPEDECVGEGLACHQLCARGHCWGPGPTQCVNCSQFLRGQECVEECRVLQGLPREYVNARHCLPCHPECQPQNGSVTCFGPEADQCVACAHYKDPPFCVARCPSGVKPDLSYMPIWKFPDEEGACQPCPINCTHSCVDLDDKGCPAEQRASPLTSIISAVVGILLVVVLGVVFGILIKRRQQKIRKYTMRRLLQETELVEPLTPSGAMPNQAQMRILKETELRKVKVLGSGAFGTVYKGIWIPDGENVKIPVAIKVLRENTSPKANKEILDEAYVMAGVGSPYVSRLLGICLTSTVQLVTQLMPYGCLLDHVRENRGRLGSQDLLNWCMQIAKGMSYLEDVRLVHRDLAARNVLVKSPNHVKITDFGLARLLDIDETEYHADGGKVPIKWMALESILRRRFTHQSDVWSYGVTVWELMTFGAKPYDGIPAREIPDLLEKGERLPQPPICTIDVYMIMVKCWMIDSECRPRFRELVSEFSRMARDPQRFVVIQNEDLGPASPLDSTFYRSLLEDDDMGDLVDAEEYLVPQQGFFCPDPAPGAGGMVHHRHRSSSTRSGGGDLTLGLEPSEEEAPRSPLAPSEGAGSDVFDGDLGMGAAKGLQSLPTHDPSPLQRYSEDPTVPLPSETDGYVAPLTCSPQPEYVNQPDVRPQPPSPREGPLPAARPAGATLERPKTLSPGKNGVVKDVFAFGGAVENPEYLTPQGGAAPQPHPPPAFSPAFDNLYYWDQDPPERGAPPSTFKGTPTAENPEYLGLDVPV
Chain of EGFR kinase (P00533 25-1210): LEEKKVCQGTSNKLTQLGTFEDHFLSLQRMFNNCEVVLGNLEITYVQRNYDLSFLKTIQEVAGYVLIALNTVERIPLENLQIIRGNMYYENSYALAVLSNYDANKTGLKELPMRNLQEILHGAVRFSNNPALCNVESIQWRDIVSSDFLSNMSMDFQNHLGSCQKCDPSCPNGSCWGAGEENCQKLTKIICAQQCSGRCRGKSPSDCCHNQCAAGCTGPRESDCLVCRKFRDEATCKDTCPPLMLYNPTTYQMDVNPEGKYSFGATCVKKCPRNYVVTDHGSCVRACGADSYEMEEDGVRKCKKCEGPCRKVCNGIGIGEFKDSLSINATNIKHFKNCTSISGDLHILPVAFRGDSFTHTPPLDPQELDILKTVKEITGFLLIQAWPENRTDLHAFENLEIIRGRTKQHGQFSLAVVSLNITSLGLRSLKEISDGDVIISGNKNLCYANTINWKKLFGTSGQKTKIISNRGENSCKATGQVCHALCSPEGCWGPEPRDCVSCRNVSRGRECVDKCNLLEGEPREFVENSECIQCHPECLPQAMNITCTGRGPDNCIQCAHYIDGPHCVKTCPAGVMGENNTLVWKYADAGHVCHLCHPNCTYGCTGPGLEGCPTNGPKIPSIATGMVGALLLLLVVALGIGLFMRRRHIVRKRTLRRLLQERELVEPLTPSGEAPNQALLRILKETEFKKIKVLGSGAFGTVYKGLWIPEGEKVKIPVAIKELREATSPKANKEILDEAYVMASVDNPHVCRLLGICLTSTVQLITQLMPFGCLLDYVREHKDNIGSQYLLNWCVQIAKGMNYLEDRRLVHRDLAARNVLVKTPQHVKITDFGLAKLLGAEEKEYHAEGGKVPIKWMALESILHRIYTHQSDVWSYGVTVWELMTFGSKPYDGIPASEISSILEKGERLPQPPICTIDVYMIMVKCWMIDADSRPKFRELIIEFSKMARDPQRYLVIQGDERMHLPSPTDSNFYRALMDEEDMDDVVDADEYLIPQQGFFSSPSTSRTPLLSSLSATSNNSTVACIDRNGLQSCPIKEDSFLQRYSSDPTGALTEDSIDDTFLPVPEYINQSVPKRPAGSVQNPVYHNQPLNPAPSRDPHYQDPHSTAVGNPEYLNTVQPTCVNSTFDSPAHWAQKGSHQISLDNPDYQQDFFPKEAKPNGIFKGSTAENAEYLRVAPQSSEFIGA

As for `CS(=O)(=O)CCNCc1ccc(-c2ccc3ncnc(Nc4ccc(OCc5cccc(F)c5)c(Cl)c4)c3c2)o1` [Lapatinib, reference compound], the “tumor volume inhibition rate (GI %)” value in experiment [1] is 19.2%; in experiment [2] it was 87.8%.

For `Cc1cc(Nc2ncnc3ccc(NC(=O)/C=C/[C@@H]4CCCN4C)cc23)ccc1Oc1cc2nncn2cn1` [Embodiment 97, (S,E)-N-(4-((4-([1,2,4]triazolo[4,3-c]pyrimidin-7-yloxy)-3-methylphenyl)amino)quinazolin-6-yl)-3-(1-methylpyrrolidin-2-yl)acrylamide], the IC50 at EGFR kinase stood at 11.4 nM; in the experiment with BT-474, 6.4 nM; in the experiment on N87, 10 nM; at ErbB2 kinase, 4.84 nM.

In the case of `Cc1cc(Nc2ncnc3ccc(NC(=O)CCl)cc23)ccc1Oc1cc2nncn2cn1` [Embodiment 82, N-(4-((4-([1,2,4]triazolo[4,3-c]pyrimidin-7-yloxy)-3-methylphenyl)amino)quinazolin-6-yl)-2-chloroacetamide], the IC50 on EGFR kinase worked out at 2.2 nM; in the experiment on BT-474 it was 7.1 nM; in the experiment with N87, 5 nM; on ErbB2 kinase, 1.1 nM.

As for `Cc1cc(Nc2ncnc3ccc(-c4cccc(F)c4)cc23)ccc1Oc1cc2nncn2cn1` [Embodiment 77, N-(4-([1,2,4]triazolo[4,3-c]pyrimidin-7-yloxy)-3-methylphenyl)-6-(3-fluorophenyl)-4-aminoquinazoline], the IC50 on EGFR kinase came to 23.6 nM; in the experiment with BT-474, 254 nM; in the experiment with N87, 509 nM; on ErbB2 kinase, 5.03 nM.
